# Reference: PubChem BioAssay (NCI)
# Several values for one entry are separate records, joined by “and”; a condition that tells them apart may be missing. Identical values can stand only once.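 Exposure lasted 48 hours, with cells grown in 96-well plates and compounds tested at five concentrations. GI50: concentration for 50% inhibition of growth. Definition used: TGI = concentration required for complete inhibition of growth.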
# How the values were obtained:
# Test in all cases: growth of human tumour cells (NCI), 48 h
# NCI-H226 lung = test system: NCI-H226 lung
# LOX IMVI melanoma = test system: LOX IMVI melanoma
# NCI/ADR-RES ovarian = test system: NCI/ADR-RES ovarian
# IGROV1 ovarian = test system: IGROV1 ovarian
# SNB-75 CNS = test system: SNB-75 CNS
# T-47D breast = test system: T-47D breast
# 786-0 renal = test system: 786-0 renal
# EKVX NSCLC = test system: EKVX NSCLC
# SW-620 colon = test system: SW-620 colon
# PC-3 prostate = test system: PC-3 prostate
SMILES,GI50 (NCI-H226 lung),TGI (NCI-H226 lung),GI50 (LOX IMVI melanoma),TGI (LOX IMVI melanoma),GI50 (NCI/ADR-RES ovarian),TGI (NCI/ADR-RES ovarian),GI50 (IGROV1 ovarian),TGI (IGROV1 ovarian),GI50 (SNB-75 CNS),TGI (SNB-75 CNS),GI50 (T-47D breast),TGI (T-47D breast),GI50 (786-0 renal),TGI (786-0 renal),GI50 (EKVX NSCLC),TGI (EKVX NSCLC),GI50 (SW-620 colon),TGI (SW-620 colon),GI50 (PC-3 prostate),TGI (PC-3 prostate)
CC(C)=CCc1cc2c(cc1O)C1=C(C(=O)C3=C(C1=O)S(=O)(=O)CCN3)C(C=C(C)C)O2 (stereo not given),1.6 µM,5.22 µM,0.492 µM,2.06 µM,6.66 µM,16.7 µM,0.959 µM,4.76 µM,1.39 µM,3.72 µM,0.714 µM,7.15 µM,2.49 µM,7.03 µM,1.55 µM,6.93 µM,0.554 µM,1.76 µM,1.6 µM,12.8 µM
CN(C)c1ccc(/C=C\c2ccnc3ccccc23)cc1,2.86 µM,48.2 µM,9.82 µM,> 100 µM,2.93 µM,> 58.5 µM,8.85 µM,> 100 µM,1.44 µM,8.97 µM,2.48 µM,> 100 µM,6.03 µM,> 39.2 µM,2.63 µM,> 37.9 µM,5.78 µM,> 96 µM,17.9 µM,> 100 µM
Cc1cc(=O)oc2ccc(OC/C=C3\CCC(=O)O3)cc12,17.2 µM,57.2 µM,4.94 µM,17.2 µM,13.7 µM,32.4 µM,3.3 µM,16.4 µM,1.87 µM,12.3 µM,2.6 µM,19.6 µM,2.7 µM,14.2 µM,18.7 µM,45.6 µM,3.87 µM,17.5 µM,3.59 µM,21.2 µM
Oc1ccc(Cl)cc1C(c1cc(Cl)ccc1O)C(Cl)(Cl)Cl,1.94 µM,4.81 µM,1.66 µM,3.22 µM,1.99 µM,4.67 µM,1.63 µM,5.67 µM,2.17 µM,9.57 µM,3.32 µM,12.4 µM,2 µM,3.99 µM,1.84 µM,5.8 µM,1.73 µM,3.3 µM,1.79 µM,4.76 µM
COc1ccc2nc3cc(Cl)ccc3c(NCCCNCCO)c2c1,1.16 µM,3.12 µM,0.294 µM,1.12 µM,4.03 µM,19.8 µM,0.577 µM,3.18 µM,0.744 µM,2.26 µM,0.625 µM,3.41 µM,0.531 µM,1.96 µM,1.17 µM,4.19 µM,0.304 µM,2.68 µM,0.544 µM,2.54 µM
COc1cc2c(c(OC)c1OC)-c1ccc(NN(C(=O)c3ccccc3)C(=O)c3ccccc3)c(=O)cc1[C@@H](NC(C)=O)CC2 (tested in a mixture with another compound),10.6 µM,37.4 µM,4.24 µM,16.5 µM,4.37 µM,> 100 µM,4.6 µM,63 µM,5.08 µM,> 100 µM,4.71 µM,42 µM,3.31 µM,13.4 µM,8.09 µM,> 100 µM,3.73 µM,15.3 µM,4.69 µM,> 100 µM
COc1ccc2c(c1)OC(N)=C(C#N)C2c1cc(OC)c(OC)c(OC)c1 (stereo not given),0.0573 µM,> 100 µM,0.0346 µM,> 100 µM,0.0199 µM,0.0449 µM,0.0463 µM,> 51 µM,0.0394 µM,45.9 µM,> 100 µM,> 100 µM,0.0538 µM,> 100 µM,0.251 µM,> 100 µM,0.038 µM,> 100 µM,0.0498 µM,> 100 µM
C/C(=N\O)c1ccc2ccc3ccccc3c2c1,–,85.6 µM,–,60.6 µM,–,85.3 µM,–,> 100 µM,–,> 100 µM,–,> 100 µM,–,> 100 µM,–,> 100 µM,–,> 100 µM,–,> 100 µM
CN1CCN(CC(=O)N(C)c2ccc(N=C(c3ccccc3)c3c(O)[nH]c4ccc(C#N)cc34)cc2)CC1,3.19 µM,16 µM,1.08 µM,2.58 µM,17.9 µM,60.1 µM,3.33 µM,15.5 µM,–,5.49 µM,14.2 µM,41.1 µM,2.3 µM,14.6 µM,5.27 µM,19.7 µM,1.9 µM,6.93 µM,2.37 µM,17 µM
COc1cc(/C=C2\C(=O)N(Cc3ccc(Cl)cc3)c3ccccc32)cc(OC)c1OC,5.2 µM,19.9 µM,1.59 µM,3 µM,2.85 µM,9.96 µM,2.73 µM,10.3 µM,5.31 µM,> 100 µM,2.16 µM,7.72 µM,3.37 µM,14.9 µM,4.15 µM,34.6 µM,1.78 µM,3.53 µM,2.43 µM,17.2 µM
O=C(Nc1ccc(Oc2ccc3nc(NC(=O)c4ccco4)[nH]c3c2)cc1)Nc1cc(C(F)(F)F)ccc1F,0.28 µM,4.02 µM,0.537 µM,6.04 µM,1.71 µM,11.4 µM,1.23 µM,10.2 µM,2.39 µM,10.2 µM,2 µM,8.19 µM,3.55 µM,10.4 µM,1.75 µM,> 25 µM,1.25 µM,> 17.8 µM,1.49 µM,8.59 µM
O=C1NC(=S)S/C1=C\c1cn(-c2ccccc2)nc1-c1ccccc1,20.3 µM,76.5 µM,10 µM,55.4 µM,4.8 µM,> 100 µM,13.9 µM,38.9 µM,17.8 µM,51.3 µM,4.59 µM,32.6 µM,3.92 µM,28.5 µM,3.03 µM,23.6 µM,19.6 µM,> 100 µM,5.66 µM,> 100 µM
CN=C(N)c1ccc(N=C(N)c2ccc(-c3ccc(C(N)=Nc4ccc(C(N)=NC)cc4)cc3)cc2)cc1,55.9 µM,> 100 µM,83 µM,> 100 µM,> 100 µM,> 100 µM,38.6 µM,> 100 µM,> 100 µM,> 100 µM,58.2 µM,> 100 µM,> 100 µM,> 100 µM,> 100 µM,> 100 µM,> 100 µM,> 100 µM,> 100 µM,> 100 µM
CCOCC1(COCC)CCC(c2[nH]ncc2CN(C)CCNC)CC1,> 100 µM,> 100 µM,> 100 µM,> 100 µM,> 100 µM,> 100 µM,> 100 µM,> 100 µM,41.4 µM,> 100 µM,> 100 µM,> 100 µM,> 100 µM,> 100 µM,> 100 µM,> 100 µM,> 100 µM,> 100 µM,59.4 µM,> 100 µM
COc1cc2cc(Oc3ccc(NC(=O)Nc4cc(C(F)(F)F)cc(C(F)(F)F)c4)cc3)c(C)nc2cc1OCCN1CCOCC1,1.6 µM,6.53 µM,1.46 µM,5.09 µM,1.59 µM,7.21 µM,1.54 µM,6.9 µM,1.02 µM,4.48 µM,2.04 µM,10.2 µM,1.28 µM,3.65 µM,1.64 µM,6.68 µM,1.72 µM,7.17 µM,1.18 µM,5.16 µM
COc1cccc2c1-c1nc(N)c3c(OC)cccc3c1C2=O,–,> 100 µM,–,> 100 µM,–,> 100 µM,–,> 100 µM,–,46.4 µM,–,> 100 µM,–,> 100 µM,–,> 100 µM,–,> 100 µM,–,> 100 µM
COc1cc2oc(-c3cccc(C(=O)Nc4ccc(Cl)cc4)c3)cc(=O)c2c(OC)c1OC,2.24 µM,94.8 µM,0.413 µM,> 100 µM,1.81 µM,> 100 µM,2.31 µM,> 100 µM,2.66 µM,> 100 µM,1.68 µM,> 100 µM,2.53 µM,> 100 µM,2.43 µM,> 100 µM,4.87 µM,> 100 µM,3.4 µM,> 100 µM
O=C1CC2OCC=C3CN4CCC56c7ccccc7N1C5C2C3CC46O (stereo not given),–,> 100 µM,–,> 100 µM,–,> 100 µM,–,> 100 µM,–,> 100 µM,–,> 100 µM,–,> 100 µM,–,> 100 µM,–,> 100 µM,–,> 100 µM
O=C(CS(=O)(=O)c1nc2ccccc2nc1-c1ccccc1)Nc1ccc(F)cc1,85.7 µM,> 100 µM,36.7 µM,> 100 µM,33.7 µM,> 100 µM,74 µM,> 100 µM,> 100 µM,> 100 µM,56.6 µM,> 100 µM,> 100 µM,> 100 µM,> 100 µM,> 100 µM,46.6 µM,> 100 µM,26 µM,> 100 µM
CCCn1c2c(c3ccccc3c1=O)C(=O)c1ccccc1-2,–,> 100 µM,–,> 100 µM,–,> 100 µM,–,> 100 µM,–,> 100 µM,–,> 100 µM,–,> 100 µM,–,> 100 µM,–,> 100 µM,–,> 100 µM
O=C(Nc1ccc(Oc2ccc(F)cc2)cc1)[C@@H]1C[C@@H](Cc2ccc(F)cc2)CN1C(=O)Cn1ccnn1,7.79 µM,29 µM,7.28 µM,22.2 µM,12.1 µM,52.5 µM,8 µM,28.2 µM,4.03 µM,31.8 µM,4.32 µM,36.5 µM,10.5 µM,34.2 µM,7.79 µM,40.4 µM,12.6 µM,40 µM,4.42 µM,> 37.8 µM
O=C1CC(c2c[nH]c3ccc(F)cc23)C(=O)N1 (stereo not given),> 100 µM,> 100 µM,> 100 µM,> 100 µM,> 100 µM,> 100 µM,> 100 µM,> 100 µM,> 100 µM,> 100 µM,> 100 µM,> 100 µM,> 100 µM,> 100 µM,> 100 µM,> 100 µM,> 100 µM,> 100 µM,> 100 µM,> 100 µM
CC(=O)OCC1OC(n2c(=S)n(-c3ccc([N+](=O)[O-])cc3)c(=O)c3ccccc32)C(OC(C)=O)C(OC(C)=O)C1OC(C)=O (stereo not given),10.1 µM and 20.4 µM,58.4 µM and 49 µM,–,51.8 µM and 31.5 µM,–,95.2 µM,29.2 µM and 20.4 µM,> 71 µM and 54.5 µM,7.28 µM and 19 µM,51 µM and 41.2 µM,–,74.3 µM,17.9 µM,45.6 µM and 39 µM,18.9 µM and 28.2 µM,> 70 µM and 57.4 µM,18 µM and 30.4 µM,> 100 µM,–,39.9 µM
